Results from ChEMBL document CHEMBL5634115, “Exploring novel anticancer pyrazole benzenesulfonamides featuring tail approach strategy as carbonic anhydrase inhibitors” (Eur J Med Chem, 2023).

Legend:
Assay in all cases: cells
A498 = type: functional; conditions: Homo sapiens, time 48 hrs
Description: Growth inhibition of human A498 cells measured after 48 hrs by sulforhodamine B assay

Hs-578T [1] = type: functional; conditions: Homo sapiens, time 48 hrs
Description: Growth inhibition of human Hs-578T cells measured after 48 hrs by sulforhodamine B assay

EKVX [2] = type: functional; conditions: Homo sapiens, time 48 hrs
Description: Cytostatic activity against human EKVX cells assessed as total growth inhibition measured after 48 hrs by sulforhodamine B assay

K562 [3] = type: functional; conditions: Homo sapiens, time 48 hrs
Description: Growth inhibition of human K562 cells measured after 48 hrs by sulforhodamine B assay

SW-620 = conditions: Homo sapiens, SW-620, 48 h, read-out: LC50
Description: Cytotoxicity activity against human SW620 cells assessed as reduction in cell growth measured after 48 hrs by sulforhodamine B assay

CAKI-1 = conditions: Homo sapiens, CAKI-1, 48 h, read-out: LC50
Description: Cytotoxicity activity against human CAKI-1 cells assessed as reduction in cell growth measured after 48 hrs by sulforhodamine B assay

NCI-H460 = type: functional; conditions: Homo sapiens, time 48 hrs
Description: Cytostatic activity against human NCI-H460 cells assessed as total growth inhibition measured after 48 hrs by sulforhodamine B assay

KM12 [4] = conditions: Homo sapiens, KM12, 48 h, read-out: LC50
Description: Cytotoxicity activity against human KM12 cells assessed as reduction in cell growth measured after 48 hrs by sulforhodamine B assay

SN12C [5] = type: functional; conditions: Homo sapiens, time 48 hrs
Description: Cytostatic activity against human SN12C cells assessed as total growth inhibition measured after 48 hrs by sulforhodamine B assay

EKVX [6] = conditions: Homo sapiens, 48 h, read-out: LC50
Description: Cytotoxicity activity against human EKVX cells assessed as reduction in cell growth measured after 48 hrs by sulforhodamine B assay

SR = type: functional; conditions: Homo sapiens, time 48 hrs
Description: Growth inhibition of human SR cells measured after 48 hrs by sulforhodamine B assay

SK-OV-3 [7] = type: functional; conditions: Homo sapiens, time 48 hrs
Description: Growth inhibition of human SK-OV-3 cells measured after 48 hrs by sulforhodamine B assay

SF-539 [8] = type: functional; conditions: Homo sapiens, time 48 hrs
Description: Cytostatic activity against human SF-539 cells assessed as total growth inhibition measured after 48 hrs by sulforhodamine B assay

DU-145 = type: functional; conditions: Homo sapiens, time 48 hrs
Description: Growth inhibition of human DU-145 cells measured after 48 hrs by sulforhodamine B assay

786-0 = type: functional; conditions: Homo sapiens, time 48 hrs
Description: Growth inhibition of human 786-0 cells measured after 48 hrs by sulforhodamine B assay

NCI-H522 [9] = conditions: Homo sapiens, NCI-H522, 48 h, read-out: LC50
Description: Cytotoxicity activity against human NCI-H522 cells assessed as reduction in cell growth measured after 48 hrs by sulforhodamine B assay

Hs-578T [10] = conditions: Homo sapiens, 48 h, read-out: LC50
Description: Cytotoxicity activity against human Hs-578T cells assessed as reduction in cell growth measured after 48 hrs by sulforhodamine B assay

UACC-62 [11] = conditions: Homo sapiens, UACC-62, 48 h, read-out: LC50
Description: Cytotoxicity activity against human UACC-62 cells assessed as reduction in cell growth measured after 48 hrs by sulforhodamine B assay

SK-MEL-2 [12] = type: functional; conditions: Homo sapiens, time 48 hrs
Description: Cytostatic activity against human SK-MEL-2 cells assessed as total growth inhibition measured after 48 hrs by sulforhodamine B assay

HOP-62 [13] = type: functional; conditions: Homo sapiens, time 48 hrs
Description: Growth inhibition of human HOP-62 cells measured after 48 hrs by sulforhodamine B assay

HCT-116 = type: functional; conditions: Homo sapiens, time 48 hrs
Description: Growth inhibition of human HCT-116 cells measured after 48 hrs by sulforhodamine B assay

MOLT-4 [14] = type: functional; conditions: Homo sapiens, time 48 hrs
Description: Growth inhibition of human MOLT-4 cells measured after 48 hrs by sulforhodamine B assay

SK-OV-3 [15] = conditions: Homo sapiens, SK-OV-3, 48 h, read-out: LC50
Description: Cytotoxicity activity against human SK-OV-3 cells assessed as reduction in cell growth measured after 48 hrs by sulforhodamine B assay

HCC 2998 = conditions: Homo sapiens, HCC 2998, 48 h, read-out: LC50
Description: Cytotoxicity activity against human HCC 2998 cells assessed as reduction in cell growth measured after 48 hrs by sulforhodamine B assay

LOX IMVI [16] = type: functional; conditions: Homo sapiens, time 48 hrs
Description: Growth inhibition of human LOX IMVI cells measured after 48 hrs by sulforhodamine B assay

OVCAR-3 = type: functional; conditions: Homo sapiens, time 48 hrs
Description: Growth inhibition of human OVCAR-3 cells measured after 48 hrs by sulforhodamine B assay

UACC-62 [17] = type: functional; conditions: Homo sapiens, time 48 hrs
Description: Cytostatic activity against human UACC-62 cells assessed as total growth inhibition measured after 48 hrs by sulforhodamine B assay

HOP-92 = type: functional; conditions: Homo sapiens, time 48 hrs
Description: Cytostatic activity against human HOP-92 cells assessed as total growth inhibition measured after 48 hrs by sulforhodamine B assay

MCF7 [18] = type: functional; conditions: Homo sapiens, time 48 hrs
Description: Cytostatic activity against human MCF7 cells assessed as total growth inhibition measured after 48 hrs by sulforhodamine B assay

A549 = type: functional; conditions: Homo sapiens, time 48 hrs
Description: Cytostatic activity against human A549 cells assessed as total growth inhibition measured after 48 hrs by sulforhodamine B assay

KM12 [19] = type: functional; conditions: Homo sapiens, time 48 hrs
Description: Growth inhibition of human KM12 cells measured after 48 hrs by sulforhodamine B assay

NCI-H522 [20] = type: functional; conditions: Homo sapiens, time 48 hrs
Description: Cytostatic activity against human NCI-H522 cells assessed as total growth inhibition measured after 48 hrs by sulforhodamine B assay

UACC-62 [21] = type: functional; conditions: Homo sapiens, time 48 hrs; remark: listed apart in the source
Description: Growth inhibition of human UACC-62 cells measured after 48 hrs by sulforhodamine B assay

T47D = conditions: Homo sapiens, 48 h, read-out: LC50
Description: Cytotoxicity activity against human T47D cells assessed as reduction in cell growth measured after 48 hrs by sulforhodamine B assay

COLO 205 [22] = type: functional; conditions: Homo sapiens, time 48 hrs
Description: Cytostatic activity against human COLO 205 cells assessed as total growth inhibition measured after 48 hrs by sulforhodamine B assay

SK-MEL-28 [23] = type: functional; conditions: Homo sapiens, time 48 hrs
Description: Growth inhibition of human SK-MEL-28 cells measured after 48 hrs by sulforhodamine B assay

K562 [24] = conditions: Homo sapiens, K562, 48 h, read-out: LC50
Description: Cytotoxicity activity against human K562 cells assessed as reduction in cell growth measured after 48 hrs by sulforhodamine B assay

Malme-3M = conditions: Homo sapiens, 48 h, read-out: LC50
Description: Cytotoxicity activity against human Malme-3M cells assessed as reduction in cell growth measured after 48 hrs by sulforhodamine B assay

RPMI-8226 = conditions: Homo sapiens, RPMI-8226, 48 h, read-out: LC50
Description: Cytotoxicity activity against human RPMI-8226 cells assessed as reduction in cell growth measured after 48 hrs by sulforhodamine B assay

CCRF-CEM = conditions: Homo sapiens, 48 h, read-out: LC50
Description: Cytotoxicity activity against human CCRF-CEM cells assessed as reduction in cell growth measured after 48 hrs by sulforhodamine B assay

LOX IMVI [25] = type: functional; conditions: Homo sapiens, time 48 hrs; remark: listed apart in the source
Description: Cytostatic activity against human LOX IMVI cells assessed as total growth inhibition measured after 48 hrs by sulforhodamine B assay

SK-MEL-2 [26] = type: functional; conditions: Homo sapiens, time 48 hrs; remark: listed apart in the source
Description: Growth inhibition of human SK-MEL-2 cells measured after 48 hrs by sulforhodamine B assay

OVCAR-5 = type: functional; conditions: Homo sapiens, time 48 hrs
Description: Growth inhibition of human OVCAR-5 cells measured after 48 hrs by sulforhodamine B assay

IGROV-1 = type: functional; conditions: Homo sapiens, time 48 hrs
Description: Growth inhibition of human IGROV-1 cells measured after 48 hrs by sulforhodamine B assay

MDA-MB-231 = conditions: Homo sapiens, MDA-MB-231, 48 h, read-out: LC50
Description: Cytotoxicity activity against human MDA-MB-231 cells assessed as reduction in cell growth measured after 48 hrs by sulforhodamine B assay

MOLT-4 [27] = conditions: Homo sapiens, MOLT-4, 48 h, read-out: LC50
Description: Cytotoxicity activity against human MOLT-4 cells assessed as reduction in cell growth measured after 48 hrs by sulforhodamine B assay

NCI/ADR-RES = conditions: Homo sapiens, 48 h, read-out: LC50
Description: Cytotoxicity activity against human NCI/ADR-RES cells assessed as reduction in cell growth measured after 48 hrs by sulforhodamine B assay

OVCAR-4 = type: functional; conditions: Homo sapiens, time 48 hrs
Description: Growth inhibition of human OVCAR-4 cells measured after 48 hrs by sulforhodamine B assay

MCF7 [28] = conditions: Homo sapiens, MCF7, 48 h, read-out: LC50
Description: Cytotoxicity activity against human MCF7 cells assessed as reduction in cell growth measured after 48 hrs by sulforhodamine B assay

COLO 205 [29] = conditions: Homo sapiens, COLO 205, 48 h, read-out: LC50
Description: Cytotoxicity activity against human COLO 205 cells assessed as reduction in cell growth measured after 48 hrs by sulforhodamine B assay

M14 = type: functional; conditions: Homo sapiens, time 48 hrs
Description: Cytostatic activity against human M14 cells assessed as total growth inhibition measured after 48 hrs by sulforhodamine B assay

BT-549 = type: functional; conditions: Homo sapiens, time 48 hrs
Description: Cytostatic activity against human BT-549 cells assessed as total growth inhibition measured after 48 hrs by sulforhodamine B assay

TK-10 = type: functional; conditions: Homo sapiens, time 48 hrs
Description: Growth inhibition of human TK-10 cells measured after 48 hrs by sulforhodamine B assay

MDA-MB-435 = type: functional; conditions: Homo sapiens, time 48 hrs
Description: Cytostatic activity against human MDA-MB-435 cells assessed as total growth inhibition measured after 48 hrs by sulforhodamine B assay

SN12C [30] = conditions: Homo sapiens, 48 h, read-out: LC50
Description: Cytotoxicity activity against human SN12C cells assessed as reduction in cell growth measured after 48 hrs by sulforhodamine B assay

SNB-75 = type: functional; conditions: Homo sapiens, time 48 hrs
Description: Cytostatic activity against human SNB-75 cells assessed as total growth inhibition measured after 48 hrs by sulforhodamine B assay

NCI-H23 = type: functional; conditions: Homo sapiens, time 48 hrs
Description: Cytostatic activity against human NCI-H23 cells assessed as total growth inhibition measured after 48 hrs by sulforhodamine B assay

SF-539 [31] = conditions: Homo sapiens, SF-539, 48 h, read-out: LC50
Description: Cytotoxicity activity against human SF-539 cells assessed as reduction in cell growth measured after 48 hrs by sulforhodamine B assay

SK-MEL-2 [32] = conditions: Homo sapiens, SK-MEL-2, 48 h, read-out: LC50
Description: Cytotoxicity activity against human SK-MEL-2 cells assessed as reduction in cell growth measured after 48 hrs by sulforhodamine B assay

SK-MEL-28 [33] = type: functional; conditions: Homo sapiens, time 48 hrs; remark: listed apart in the source
Description: Cytostatic activity against human SK-MEL-28 cells assessed as total growth inhibition measured after 48 hrs by sulforhodamine B assay

SNB-19 = conditions: Homo sapiens, SNB-19, 48 h, read-out: LC50
Description: Cytotoxicity activity against human SNB-19 cells assessed as reduction in cell growth measured after 48 hrs by sulforhodamine B assay

HOP-62 [34] = type: functional; conditions: Homo sapiens, time 48 hrs; remark: listed apart in the source
Description: Cytostatic activity against human HOP-62 cells assessed as total growth inhibition measured after 48 hrs by sulforhodamine B assay

## CCOC(=O)c1ccc(N/N=C/c2cn(-c3ccc(S(N)(=O)=O)cc3)nc2-c2ccc(C)cc2)cc1
A498
  GI50: 7.62 µM
Hs-578T [1]
  GI50: 2.76 µM
EKVX [2]
  TGI: 3.17 µM
K562 [3]
  GI50: 2.88 µM
SW-620
  CC50: > 100 µM
CAKI-1
  CC50: > 100 µM
NCI-H460
  TGI: 2.43 µM
KM12 [4]
  CC50: 10.6 µM
SN12C [5]
  TGI: 58.6 µM
EKVX [6]
  CC50: > 100 µM
SR
  GI50: 2.65 µM
SK-OV-3 [7]
  GI50: 24.4 µM
SF-539 [8]
  TGI: 8.03 µM
DU-145
  GI50: 5.06 µM
786-0
  GI50: 2.42 µM
NCI-H522 [9]
  CC50: > 100 µM
Hs-578T [10]
  CC50: > 100 µM
UACC-62 [11]
  CC50: 59.8 µM
SK-MEL-2 [12]
  TGI: 40.6 µM
HOP-62 [13]
  GI50: 6.55 µM
HCT-116
  GI50: 3.11 µM
MOLT-4 [14]
  GI50: 2.87 µM
SK-OV-3 [15]
  CC50: > 100 µM
HCC 2998
  CC50: 8.71 µM
LOX IMVI [16]
  GI50: 1.71 µM
OVCAR-3
  GI50: 2.57 µM
UACC-62 [17]
  TGI: 21.5 µM
HOP-92
  TGI: 2.79 µM
MCF7 [18]
  TGI: 7.77 µM
A549
  TGI: 4.07 µM
KM12 [19]
  GI50: 2.1 µM
NCI-H522 [20]
  TGI: 2.07 µM
UACC-62 [21]
  GI50: 5.66 µM
T47D
  CC50: > 100 µM
COLO 205 [22]
  TGI: 44.3 µM
SK-MEL-28 [23]
  GI50: 4.5 µM
K562 [24]
  CC50: > 100 µM
Malme-3M
  CC50: 62.5 µM
RPMI-8226
  CC50: > 100 µM
CCRF-CEM
  CC50: > 100 µM
LOX IMVI [25]
  TGI: 3.15 µM
SK-MEL-2 [26]
  GI50: 11.8 µM
OVCAR-5
  GI50: 4.29 µM
IGROV-1
  GI50: 5.13 µM
MDA-MB-231
  CC50: 58 µM
MOLT-4 [27]
  CC50: > 100 µM
NCI/ADR-RES
  CC50: > 100 µM
OVCAR-4
  GI50: 7.08 µM
MCF7 [28]
  CC50: > 100 µM
COLO 205 [29]
  CC50: > 100 µM
M14
  TGI: 3.57 µM
BT-549
  TGI: 40.6 µM
TK-10
  GI50: 24.5 µM
MDA-MB-435
  TGI: 8.96 µM
SN12C [30]
  CC50: > 100 µM
SNB-75
  TGI: 46.4 µM
NCI-H23
  TGI: 3.26 µM
SF-539 [31]
  CC50: 35 µM
SK-MEL-2 [32]
  CC50: > 100 µM
SK-MEL-28 [33]
  TGI: 19.6 µM
SNB-19
  CC50: > 100 µM
HOP-62 [34]
  TGI: 6.55 µM
